Results published in ChEMBL document CHEMBL1201862, “PubChem BioAssay data set” (2004).
Calls of active or inactive are those of the source.

Key:
[1] = target: T1, Protein Tat (Human immunodeficiency virus type 1 group M subtype B (isolate HXB2)(HIV-1), UniProt P04608); assay type: functional;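 note: tat binding to TAR RNA read out by fluorescence polarization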
T1 sequence (P04608 whole entry): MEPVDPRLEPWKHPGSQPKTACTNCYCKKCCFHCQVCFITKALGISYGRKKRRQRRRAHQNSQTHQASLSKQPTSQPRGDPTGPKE

[2] = HIV-1 Vif–A3G interaction blockers – biochemical, TR-FRET, GST-Vif 1-94, biotin-A3G peptide, dose response retest, primary screen (AID 1117319); assay type: functional;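 note: TR-FRET signal of purified GST-Vif binding a biotinylated A3G peptide; inhibitors lower the FRET signal by blocking Vif and A3G binding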
[3] = target: T2, Corticotropin-releasing factor receptor 2/Corticotropin-releasing factor-binding protein (Homo sapiens, UniProt P24387+Q13324); test: activators of CRF receptor 2 with binding protein – uHTS hits, confirmation (AID 602473); assay type: functional; details: read-out: EC50_Mean
T2 sequence (Q13324 whole entry): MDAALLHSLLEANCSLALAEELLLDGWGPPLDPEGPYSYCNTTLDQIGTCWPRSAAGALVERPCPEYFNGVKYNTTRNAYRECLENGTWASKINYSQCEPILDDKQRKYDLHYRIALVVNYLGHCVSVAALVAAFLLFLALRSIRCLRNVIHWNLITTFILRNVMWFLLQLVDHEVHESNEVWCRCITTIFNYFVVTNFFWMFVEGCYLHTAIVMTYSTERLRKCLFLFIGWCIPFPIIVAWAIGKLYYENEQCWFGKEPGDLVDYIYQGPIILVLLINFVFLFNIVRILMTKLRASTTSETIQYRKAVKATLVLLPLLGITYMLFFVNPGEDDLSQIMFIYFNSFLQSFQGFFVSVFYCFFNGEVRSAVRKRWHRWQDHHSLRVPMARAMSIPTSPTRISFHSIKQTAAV
T2 sequence (P24387 whole entry): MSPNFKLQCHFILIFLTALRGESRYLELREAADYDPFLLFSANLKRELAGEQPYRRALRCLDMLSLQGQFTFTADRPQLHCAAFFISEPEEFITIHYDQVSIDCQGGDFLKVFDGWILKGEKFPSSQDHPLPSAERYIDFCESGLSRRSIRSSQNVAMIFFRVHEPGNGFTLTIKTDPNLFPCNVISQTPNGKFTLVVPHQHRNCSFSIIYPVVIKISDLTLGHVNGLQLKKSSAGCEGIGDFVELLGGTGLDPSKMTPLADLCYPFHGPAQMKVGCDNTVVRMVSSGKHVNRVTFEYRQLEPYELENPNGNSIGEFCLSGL

[4] = blockers of CRF-binding protein–CRF-R2 complex – cell-based, uHTS hits, 384-well, dose response (AID 651639); assay type: functional, Homo sapiens; details: read-out: IC50_Mean
[5] = target: T2, Corticotropin-releasing factor receptor 2/Corticotropin-releasing factor-binding protein; test: Dose Response confirmation of uHTS hits for small molecule antagonists of the CRF-binding protein and CRF-R2 receptor complex.; assay type: functional; details: read-out: IC50_Mean
[6] = target: T3, Estrogen receptor beta (Homo sapiens, UniProt Q92731);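 note: recombinant ER-beta bound to coactivator SRC1 peptide in presence of estradiol agonist; inhibitors block coactivator peptide binding and lower the FRET signal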
T3 sequence (Q92731 whole entry): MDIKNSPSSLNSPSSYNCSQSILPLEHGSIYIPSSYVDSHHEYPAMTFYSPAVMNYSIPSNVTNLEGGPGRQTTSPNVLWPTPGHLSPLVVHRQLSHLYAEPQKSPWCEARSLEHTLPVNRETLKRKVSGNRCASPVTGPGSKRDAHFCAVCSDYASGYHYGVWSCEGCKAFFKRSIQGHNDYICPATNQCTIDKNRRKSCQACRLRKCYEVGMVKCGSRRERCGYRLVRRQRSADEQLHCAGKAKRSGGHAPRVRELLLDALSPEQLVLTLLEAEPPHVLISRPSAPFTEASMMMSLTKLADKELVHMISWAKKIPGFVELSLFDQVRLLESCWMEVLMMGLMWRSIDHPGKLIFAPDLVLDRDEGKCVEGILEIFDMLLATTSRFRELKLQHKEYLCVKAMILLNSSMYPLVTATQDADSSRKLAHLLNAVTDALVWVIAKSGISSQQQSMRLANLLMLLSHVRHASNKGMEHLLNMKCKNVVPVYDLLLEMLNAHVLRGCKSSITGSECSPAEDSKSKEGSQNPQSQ

[7] = target: T3, Estrogen receptor beta; test: blockers of SRC-3 recruitment to ERβ – biochemical, ELISA, streptavidin-HRP readout, orthogonal assay, confirmation (AID 1060)
[8] = target: T4, Rac GTPase-activating protein 1 (Homo sapiens, UniProt Q9H0H5); test: blockers of MgcRacGAP-driven Rac1 GTP hydrolysis – biochemical, ADP Hunter fluorescence, primary and confirmatory, confirmation (AID 624330); assay type: functional
T4 sequence (Q9H0H5 whole entry): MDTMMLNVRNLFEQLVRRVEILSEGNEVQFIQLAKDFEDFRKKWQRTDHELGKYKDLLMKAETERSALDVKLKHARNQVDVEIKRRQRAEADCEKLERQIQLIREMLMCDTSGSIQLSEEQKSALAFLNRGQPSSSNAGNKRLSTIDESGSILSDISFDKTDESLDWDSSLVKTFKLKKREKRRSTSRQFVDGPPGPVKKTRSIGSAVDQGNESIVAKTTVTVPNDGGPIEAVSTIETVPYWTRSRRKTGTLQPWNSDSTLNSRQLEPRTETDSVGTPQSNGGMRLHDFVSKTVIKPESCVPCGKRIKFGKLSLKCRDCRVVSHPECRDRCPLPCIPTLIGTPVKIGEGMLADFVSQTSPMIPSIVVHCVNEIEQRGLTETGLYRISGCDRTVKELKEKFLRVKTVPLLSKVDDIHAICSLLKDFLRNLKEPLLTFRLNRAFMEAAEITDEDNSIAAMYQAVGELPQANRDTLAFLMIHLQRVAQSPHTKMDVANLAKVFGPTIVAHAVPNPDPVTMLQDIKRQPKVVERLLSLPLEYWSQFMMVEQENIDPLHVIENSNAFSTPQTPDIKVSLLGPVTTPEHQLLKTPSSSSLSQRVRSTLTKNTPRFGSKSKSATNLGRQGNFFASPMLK

[9] = viability loss in human Jurkat cells – cell-based, luminescence, cytotoxicity control for P. falciparum gametocyte viability project, dose response (AID 1117277); assay type: functional;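 note: potency reflects loss of cellular ATP meaning fewer viable cells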
[10] = viability inhibitors of stage V gametocytes – luminescence, dose response (AID 1117278); assay type: functional, cell-based;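 note: gametocytes exposed to compound for 24 hours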
[11] = target: T5, Small ubiquitin-related modifier 1 (Homo sapiens, UniProt P63165); test: SUMO1 protein-protein binding blockers, potency – biochemical, FRET, dose response (AID 624383); assay type: functional; details: read-out: IC50_Mean
T5 sequence (P63165 whole entry, the tested form may be a part): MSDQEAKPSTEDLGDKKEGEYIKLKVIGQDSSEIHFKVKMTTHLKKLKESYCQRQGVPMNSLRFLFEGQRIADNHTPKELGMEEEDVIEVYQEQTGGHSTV

[12] = target: T6, Carboxy-terminal domain RNA polymerase II polypeptide A small phosphatase 1 (Homo sapiens, UniProt Q9GZU7); test: CTDSP1 inhibitors, concentration-response, biochemical, absorbance readout, ultra-high-throughput screen actives (AID 540297); assay type: functional
T6 sequence (Q9GZU7 whole entry): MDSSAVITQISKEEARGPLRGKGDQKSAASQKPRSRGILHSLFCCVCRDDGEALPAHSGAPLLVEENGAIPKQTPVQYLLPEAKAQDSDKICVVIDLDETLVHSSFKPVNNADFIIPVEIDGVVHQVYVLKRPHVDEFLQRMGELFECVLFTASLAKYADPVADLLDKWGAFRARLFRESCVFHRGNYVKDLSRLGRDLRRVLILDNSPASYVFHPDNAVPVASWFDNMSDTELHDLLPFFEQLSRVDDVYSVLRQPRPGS

[13] = target: T5, Small ubiquitin-related modifier 1; test: SUMO1 protein interaction blockers, potency – biochemical, fluorescence polarization, uHTS hits, dose response (AID 624382); assay type: functional; details: read-out: IC50_Mean
[14] = target: T7, Fructose-bisphosphate aldolase (Mycobacterium tuberculosis, UniProt P9WQA3); test: Fluorescence-based biochemical high throughput dose response assay for inhibitors of the fructose-bisphosphate aldolase (FBA) of M. tuberculosis.; assay type: functional
T7 sequence (P9WQA3 whole entry): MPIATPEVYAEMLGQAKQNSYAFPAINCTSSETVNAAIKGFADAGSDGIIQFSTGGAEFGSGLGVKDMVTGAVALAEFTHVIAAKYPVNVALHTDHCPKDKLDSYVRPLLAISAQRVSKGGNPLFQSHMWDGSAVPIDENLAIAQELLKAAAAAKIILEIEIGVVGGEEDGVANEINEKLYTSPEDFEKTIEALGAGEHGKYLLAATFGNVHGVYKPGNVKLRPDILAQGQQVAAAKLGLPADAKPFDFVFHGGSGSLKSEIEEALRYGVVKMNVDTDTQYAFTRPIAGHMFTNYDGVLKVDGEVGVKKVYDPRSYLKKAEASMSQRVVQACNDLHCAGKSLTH

[15] = Counterscreen for activators of the function of SWI/SNF related, matrix associated, actin dependent regulator of chromatin, subfamily a, member 2 (SMARCA2, BRM): Luminescence-based cell-based high throughput dose response assay to identify non-selective compounds using the VP16 reporter assay.; assay type: functional
[16] = target: SWI/SNF-related matrix-associated actin-dependent regulator of chromatin subfamily A member 2 (Homo sapiens, UniProt P51531); test: Luminescence-based cell-based high throughput dose response assay to identify activators of the function of SWI/SNF related, matrix associated, actin dependent regulator of chromatin, subfamily a, member 2 (SMARCA2, BRM).; assay type: functional
Chain of SWI/SNF-related matrix-associated actin-dependent regulator of chromatin subfamily A member 2 (P51531 whole entry): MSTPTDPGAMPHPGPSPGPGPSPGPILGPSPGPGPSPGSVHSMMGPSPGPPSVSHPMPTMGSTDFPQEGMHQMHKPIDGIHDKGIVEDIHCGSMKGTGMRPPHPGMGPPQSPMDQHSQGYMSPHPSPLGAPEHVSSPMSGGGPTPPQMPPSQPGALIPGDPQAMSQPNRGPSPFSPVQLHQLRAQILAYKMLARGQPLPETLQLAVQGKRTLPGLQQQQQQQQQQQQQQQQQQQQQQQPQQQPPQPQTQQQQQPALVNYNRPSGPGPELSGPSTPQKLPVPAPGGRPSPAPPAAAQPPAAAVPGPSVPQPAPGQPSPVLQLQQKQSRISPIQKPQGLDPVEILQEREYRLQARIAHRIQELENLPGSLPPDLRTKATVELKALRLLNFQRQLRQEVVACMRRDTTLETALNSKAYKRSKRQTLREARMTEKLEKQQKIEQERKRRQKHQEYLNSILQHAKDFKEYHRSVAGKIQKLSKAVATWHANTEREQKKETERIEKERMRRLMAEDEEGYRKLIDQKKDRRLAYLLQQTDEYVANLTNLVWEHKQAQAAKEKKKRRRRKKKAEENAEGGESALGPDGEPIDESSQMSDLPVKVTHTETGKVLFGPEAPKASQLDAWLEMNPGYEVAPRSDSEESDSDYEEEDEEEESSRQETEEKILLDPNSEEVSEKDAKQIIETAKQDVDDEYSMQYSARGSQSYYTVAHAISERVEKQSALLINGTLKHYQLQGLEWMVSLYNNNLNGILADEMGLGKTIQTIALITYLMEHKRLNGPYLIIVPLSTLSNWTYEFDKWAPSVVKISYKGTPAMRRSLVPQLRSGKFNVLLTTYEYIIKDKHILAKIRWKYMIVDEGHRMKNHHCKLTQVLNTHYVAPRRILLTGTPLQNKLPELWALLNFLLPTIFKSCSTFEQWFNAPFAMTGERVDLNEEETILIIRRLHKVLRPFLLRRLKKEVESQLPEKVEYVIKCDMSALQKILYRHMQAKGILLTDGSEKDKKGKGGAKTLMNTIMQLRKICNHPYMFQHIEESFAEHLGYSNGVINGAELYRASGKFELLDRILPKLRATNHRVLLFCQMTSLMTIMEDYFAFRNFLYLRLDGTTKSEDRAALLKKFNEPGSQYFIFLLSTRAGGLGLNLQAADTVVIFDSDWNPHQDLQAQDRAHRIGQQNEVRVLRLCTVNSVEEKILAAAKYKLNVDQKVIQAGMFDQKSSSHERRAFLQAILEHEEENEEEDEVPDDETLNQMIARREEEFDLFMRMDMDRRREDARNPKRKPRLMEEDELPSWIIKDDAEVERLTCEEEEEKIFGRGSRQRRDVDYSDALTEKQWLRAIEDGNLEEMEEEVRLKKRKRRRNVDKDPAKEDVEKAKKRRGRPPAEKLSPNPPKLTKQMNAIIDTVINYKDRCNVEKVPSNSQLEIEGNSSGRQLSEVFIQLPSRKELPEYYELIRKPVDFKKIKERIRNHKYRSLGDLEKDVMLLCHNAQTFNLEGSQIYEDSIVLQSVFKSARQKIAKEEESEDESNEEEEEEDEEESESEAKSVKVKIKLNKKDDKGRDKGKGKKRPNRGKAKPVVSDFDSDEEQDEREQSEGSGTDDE

O=C(c1ccc(=O)oc1)N1CCCc2ccccc21
IC50 [1]: 5.02 µM (inconclusive)

COCCNC(C)C(=O)C12CC3CC(CC(C3)C1)C2 (stereo not drawn)
IC50 [2]: > 100 µM (active)

COc1ccc(C(=O)NC(Oc2ccccc2)C(Cl)(Cl)Cl)cc1 (stereo not drawn)
EC50 [3]: > 53 µM (inactive)
IC50 [4]: 14.5 µM (active)
IC50 [5]: 5.81 µM (active)

Nc1c(Cl)cc(Cl)cc1C(=O)OCC(=O)NC1CC1
IC50 [6]: 26.5 µM (active)
IC50 [7]: < 23 nM (not active)

O=C(Nc1ccc(O)cc1)c1cccc(Oc2ccc([N+](=O)[O-])cc2)c1
EC50 [3]: > 53 µM (inactive)
IC50 [4]: > 20 µM (inactive)
IC50 [8]: 41.8 µM (active)
IC50 [5]: 25.9 µM (active)

O=C(Cn1cnc2c(oc3ccccc32)c1=O)N1CCCC1
IC50 [9]: > 83.4 µM (inactive)
IC50 [10]: > 109 µM (inactive)

CC1CCCC(C)N1CC(=O)Nc1sc2c(c1C#N)CCCC2 (stereo not drawn)
IC50 [7]: 37.2 nM (not active)

CC(=O)c1ccc(NC(=O)c2cccc(N3C(=O)c4ccccc4C3=O)c2)cc1
IC50 [11]: 3.13 µM (active)
IC50 [12]: 9.44 µM (active)
IC50 [13]: > 66.6 µM (inactive)

N=c1c(C(=O)NC2CCCCC2)cc2c(=O)n3ccccc3nc2n1Cc1ccco1
IC50 [14]: 3.71 µM (active)

CCOc1ccccc1CNCCNC(=O)c1nonc1N
IC50 [9]: > 83.3 µM (inactive)
IC50 [10]: > 109 µM (inactive)

CC(=O)c1ccc(-c2cnc3c(NC=O)cc(-c4ccc(N5CCN(C)CC5)cc4)cn23)cc1
EC50 [15]: > 91.2 µM (inactive)
EC50 [16]: 56 µM (inactive)

CC1(C(=O)Nc2ccccc2)Cc2c(-c3ccc4c(c3)OCO4)ccnc2O1 (stereo not drawn)
IC50 [14]: 2.52 µM (active)
